# Measurements: patent US12599136B2, “Substituted isophthalic acid diamides and their use as herbicides” (Bayer Aktiengesellschaft, priority 2020, dated 2026)
# What was measured:
# Type in all cases: in vivo
# Veronica persica [1] = test: Pre-emergence herbicidal action against VERPE
# Outline: (§1)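 Seeds sown in sandy loam, soil-covered; compound sprayed on soil surface pre-emergence. Application: WP/EC, 600–800 l/ha, 0.2% wetting agent. Readout: visual % damage at 3 weeks.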
# Setaria viridis [2] = test: Pre-emergence herbicidal action against SETVI
# Outline: as §1
# Pharbitis purpurea [3] = test: Pre-emergence herbicidal action against PHBPU; details: 80 g/ha; visual score after 3 weeks vs untreated controls
# Outline: as §1
# Avena fatua [4] = test: Post-emergence herbicidal action against AVEFA; details: for Post-emergence action against AVEFA in %: visual assessment about 3 weeks after treatment
# Outline: (§2)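 Percent herbicidal action is rated by eye about 3 weeks after treatment against untreated controls, where 100% means dead plants and 0% means like controls. Plants in sandy loam are sprayed on green parts at the one-leaf stage with aqueous WP or EC preparations at 600 to 800 l/ha plus 0.2% wetting agent.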
# Amaranthus retroflexus [5] = test: Post-emergence herbicidal action against AMARE; details: visual assessment about 3 weeks after treatment
# Outline: as §2
# Digitaria sanguinalis [6] = test: Post-emergence herbicidal action against DIGSA
# Outline: as §2
# Viola tricolor [7] = test: Post-emergence herbicidal action against VIOTR
# Outline: as §2
# Amaranthus retroflexus [8] = test: Pre-emergence herbicidal action against AMARE; details: visual score after 3 weeks vs untreated controls
# Outline: as §1
# Matricaria inodora [9] = test: Post-emergence herbicidal action against MATIN; details: for Post-emergence action against MATIN in %: visual assessment about 3 weeks after treatment
# Outline: as §2
# Abutilon theophrasti [10] = test: Pre-emergence herbicidal action against ABUTH; details: for Pre-emergence action against ABUTH: visual score after 3 weeks vs untreated controls
# Outline: as §1
# Alopecurus myosuroides [11] = test: Post-emergence herbicidal action against ALOMY
# Outline: as §2
# Viola tricolor [12] = test: Pre-emergence herbicidal action against VIOTR
# Outline: as §1
# Echinochloa crus-galli [13] = test: Pre-emergence herbicidal action against ECHCG; details: for Pre-emergence action against ECHCG: visual score after 3 weeks vs untreated controls
# Outline: as §1
# Setaria viridis [14] = test: Post-emergence herbicidal action against SETVI; details: for Post-emergence action against SETVI in %: visual assessment about 3 weeks after treatment
# Outline: as §2
# Echinochloa crus-galli [15] = test: Post-emergence herbicidal action against ECHCG; details: visual assessment about 3 weeks after treatment
# Outline: as §2
# Matricaria inodora [16] = test: Pre-emergence herbicidal action against MATIN; details: for Pre-emergence action against MATIN: visual score after 3 weeks vs untreated controls
# Outline: as §1
# Alopecurus myosuroides [17] = test: Pre-emergence herbicidal action against ALOMY; details: for Pre-emergence action against ALOMY: visual score after 3 weeks vs untreated controls
# Outline: as §1
# Polygonum convolvulus [18] = test: Post-emergence herbicidal action against POLCO; details: 20 g/ha, visual assessment about 3 weeks after treatment
# Procedure: Seeds of monocotyledonous and dicotyledonous weed and crop plants are laid out in sandy loam soil in wood-fiber pots, covered with soil and cultivated in a greenhouse under good growth conditions. 2 to 3 weeks after sowing, the test plants are treated at the one-leaf stage. The compounds of the invention, formulated in the form of wettable powders (WP) or as emulsion concentrates (EC), are then sprayed onto the green parts of the plants in the form of an aqueous suspension or emulsion at a water application rate equivalent to 600 to 800 l/ha, with addition of 0.2% wetting agent. After the test plants have been left to stand in the greenhouse under optimal growth conditions for about 3 weeks, the action of the preparations is assessed visually in comparison to untreated controls (herbicidal action in percent (%): 100% activity=the plants have died, 0% activity=like control plants). […] The tables below illustrate, in an illustrative manner, the post-emergence herbicidal action of the compounds of the invention, the herbicidal activity being stated in percent.
# Digitaria sanguinalis [19] = test: Pre-emergence herbicidal action against DIGSA
# Outline: as §1
# Avena fatua [20] = test: Pre-emergence herbicidal action against AVEFA; details: for Pre-emergence action against AVEFA: visual score after 3 weeks vs untreated controls
# Outline: as §1
# Pharbitis purpurea [21] = test: Post-emergence herbicidal action against PHBPU
# Outline: as §2
# Lolium rigidum = test: Pre-emergence herbicidal action against LOLRI; details: 80 g/ha
# Outline: as §1
# Abutilon theophrasti [22] = test: Post-emergence herbicidal action against ABUTH
# Outline: as §2
# Veronica persica [23] = test: Post-emergence herbicidal action against VERPE; details: visual assessment about 3 weeks after treatment
# Outline: as §2
# Polygonum convolvulus [24] = test: Pre-emergence herbicidal action against POLCO; details: 80 g/ha
# Outline: as §1
# [25] = comparative experiment, pre-emergence, 20 g a.i./ha
# [26] = comparative experiment, 5 g a.i./ha
smiles,measurement,setting,value
CCN(C(=O)c1c(C(F)(F)F)ccc(C(=O)Nc2nnnn2CC)c1C)C1CC1 [Example 2-32],Pre-emergence action against VERPE,Veronica persica [1]; 20 g/ha,90%
same,Pre-emergence action against VERPE,Veronica persica [1]; 80 g/ha,90%
same,Pre-emergence action against SETVI,Setaria viridis [2]; 80 g/ha,100%
same,Pre-emergence action against PHBPU,Pharbitis purpurea [3],80%
same,Post-emergence action against AVEFA in %,Avena fatua [4]; 20 g/ha,80%
same,Post-emergence action against AMARE in %,Amaranthus retroflexus [5]; 5 g/ha,100%
same,Post-emergence action against AMARE in %,Amaranthus retroflexus [5]; 20 g/ha,100%
same,Post-emergence action against DIGSA in %,Digitaria sanguinalis [6]; 5 g/ha,90%
same,Post-emergence action against DIGSA in %,Digitaria sanguinalis [6]; 20 g/ha,90%
same,Post-emergence action against VIOTR in %,Viola tricolor [7]; 5 g/ha,80%
same,Post-emergence action against VIOTR in %,Viola tricolor [7]; 20 g/ha,90%
same,Pre-emergence action against AMARE,Amaranthus retroflexus [8]; 20 g/ha,100%
same,Pre-emergence action against AMARE,Amaranthus retroflexus [8]; 80 g/ha,100%
same,Post-emergence action against MATIN in %,Matricaria inodora [9]; 5 g/ha,80%
same,Post-emergence action against MATIN in %,Matricaria inodora [9]; 20 g/ha,90%
same,Pre-emergence action against ABUTH,Abutilon theophrasti [10]; 20 g/ha,100%
same,Pre-emergence action against ABUTH,Abutilon theophrasti [10]; 80 g/ha,100%
same,Post-emergence action against ALOMY,Alopecurus myosuroides [11]; 5 g/ha,80%
same,Post-emergence action against ALOMY,Alopecurus myosuroides [11]; 20 g/ha,100%
same,Pre-emergence action against VIOTR,Viola tricolor [12]; 20 g/ha,90%
same,Pre-emergence action against VIOTR,Viola tricolor [12]; 80 g/ha,100%
same,Pre-emergence action against ECHCG,Echinochloa crus-galli [13]; 80 g/ha,90%
same,Post-emergence action against SETVI in %,Setaria viridis [14]; 20 g/ha,90%
same,Post-emergence action against ECHCG in %,Echinochloa crus-galli [15]; 5 g/ha,90%
same,Post-emergence action against ECHCG in %,Echinochloa crus-galli [15]; 20 g/ha,90%
same,Pre-emergence action against MATIN,Matricaria inodora [16]; 20 g/ha,80%
same,Pre-emergence action against MATIN,Matricaria inodora [16]; 80 g/ha,100%
same,Pre-emergence action against ALOMY,Alopecurus myosuroides [17]; 80 g/ha,90%
same,Post-emergence action against POLCO in %,Polygonum convolvulus [18],80%
same,Pre-emergence action against DIGSA,Digitaria sanguinalis [19]; 20 g/ha,100%
same,Pre-emergence action against DIGSA,Digitaria sanguinalis [19]; 80 g/ha,100%
CCn1nnnc1NC(=O)c1ccc(C(F)F)c(C(=O)N(C)C)c1Cl [Example 2-154],Pre-emergence action against AVEFA,Avena fatua [20]; 20 g/ha,80%
same,Pre-emergence action against AVEFA,Avena fatua [20]; 80 g/ha,100%
same,Herbicidal action against AVEFA,Avena fatua [20]; [25],80
same,Pre-emergence action against VERPE,Veronica persica [1]; 80 g/ha,90%
same,Pre-emergence action against SETVI,Setaria viridis [2]; 20 g/ha,100%
same,Pre-emergence action against SETVI,Setaria viridis [2]; 80 g/ha,100%
same,Herbicidal action against SETVI,"Setaria viridis [2]; comparative experiment, 20 g a.i./ha",100
same,Post-emergence action against PHBPU in %,"Pharbitis purpurea [21]; 20 g/ha, visual assessment about 3 weeks after treatment",80%
same,Herbicidal action against PHBPU,Pharbitis purpurea [21]; [26],70
same,Pre-emergence action against PHBPU,Pharbitis purpurea [3],80%
same,Post-emergence action against AVEFA in %,Avena fatua [4]; 5 g/ha,80%
same,Post-emergence action against AVEFA in %,Avena fatua [4]; 20 g/ha,100%
same,Herbicidal action against AVEFA,Avena fatua [4]; [26],80
same,Post-emergence action against AMARE in %,Amaranthus retroflexus [5]; 5 g/ha,90%
same,Post-emergence action against AMARE in %,Amaranthus retroflexus [5]; 20 g/ha,100%
same,Post-emergence action against DIGSA in %,Digitaria sanguinalis [6]; 5 g/ha,90%
same,Post-emergence action against DIGSA in %,Digitaria sanguinalis [6]; 20 g/ha,90%
same,Post-emergence action against VIOTR in %,Viola tricolor [7]; 5 g/ha,90%
same,Post-emergence action against VIOTR in %,Viola tricolor [7]; 20 g/ha,100%
same,Herbicidal action against VIOTR,Viola tricolor [7]; [26],80
same,Pre-emergence action against LOLRI,Lolium rigidum,80%
same,Post-emergence action against ABUTH,Abutilon theophrasti [22]; 5 g/ha,100%
same,Post-emergence action against ABUTH,Abutilon theophrasti [22]; 20 g/ha,100%
same,Pre-emergence action against AMARE,Amaranthus retroflexus [8]; 20 g/ha,100%
same,Pre-emergence action against AMARE,Amaranthus retroflexus [8]; 80 g/ha,100%
same,Post-emergence action against MATIN in %,Matricaria inodora [9]; 5 g/ha,80%
same,Post-emergence action against MATIN in %,Matricaria inodora [9]; 20 g/ha,90%
same,Herbicidal action against MATIN,Matricaria inodora [9]; [26],80
same,Pre-emergence action against ABUTH,Abutilon theophrasti [10]; 20 g/ha,100%
same,Pre-emergence action against ABUTH,Abutilon theophrasti [10]; 80 g/ha,100%
same,Herbicidal action against ABUTH,Abutilon theophrasti [10]; [25],100
same,Post-emergence action against VERPE in %,Veronica persica [23]; 5 g/ha,80%
same,Post-emergence action against VERPE in %,Veronica persica [23]; 20 g/ha,90%
same,Post-emergence action against ALOMY,Alopecurus myosuroides [11]; 5 g/ha,90%
same,Post-emergence action against ALOMY,Alopecurus myosuroides [11]; 20 g/ha,90%
same,Herbicidal action against ALOMY,Alopecurus myosuroides [11]; [26],90
same,Pre-emergence action against VIOTR,Viola tricolor [12]; 20 g/ha,90%
same,Pre-emergence action against VIOTR,Viola tricolor [12]; 80 g/ha,100%
same,Pre-emergence action against ECHCG,Echinochloa crus-galli [13]; 20 g/ha,80%
same,Pre-emergence action against ECHCG,Echinochloa crus-galli [13]; 80 g/ha,100%
same,Herbicidal action against ECHCG,Echinochloa crus-galli [13]; [25],80
same,Post-emergence action against SETVI in %,Setaria viridis [14]; 5 g/ha,90%
same,Post-emergence action against SETVI in %,Setaria viridis [14]; 20 g/ha,100%
same,Herbicidal action against SETVI,Setaria viridis [14]; [26],90
same,Post-emergence action against ECHCG in %,Echinochloa crus-galli [15]; 5 g/ha,80%
same,Post-emergence action against ECHCG in %,Echinochloa crus-galli [15]; 20 g/ha,90%
same,Pre-emergence action against POLCO,Polygonum convolvulus [24],80%
same,Pre-emergence action against MATIN,Matricaria inodora [16]; 20 g/ha,90%
same,Pre-emergence action against MATIN,Matricaria inodora [16]; 80 g/ha,100%
same,Herbicidal action against MATIN,Matricaria inodora [16]; [25],90
same,Pre-emergence action against ALOMY,Alopecurus myosuroides [17]; 20 g/ha,80%
same,Pre-emergence action against ALOMY,Alopecurus myosuroides [17]; 80 g/ha,100%
same,Herbicidal action against ALOMY,Alopecurus myosuroides [17]; [25],80
same,Post-emergence action against POLCO in %,Polygonum convolvulus [18],90%
same,Pre-emergence action against DIGSA,Digitaria sanguinalis [19]; 20 g/ha,100%
same,Pre-emergence action against DIGSA,Digitaria sanguinalis [19]; 80 g/ha,100%
